We go through 1 compound from patent US20230226105A1, “METHODS AND COMPOSITIONS FOR TREATING CANCER” (ReversPAH LLC, priority 2021, published 2023).

The nature of data set [1]: Stability of TTM filled in enteric capsules exposed to stomach acid / simulated stomach acid. In kind it is physicochemical. The settings on record: additional enteric coatings applied; after one hour. The procedure:
The present inventors have determined that while the designed disintegration properties of an enteric capsule remain stable for 2 hours and the designed enteric capsule may have a diffusion rate below 7.5% in the first two hours, the inventors research confirmed in fact stomach acid or moisture from the stomach does enter the capsule, and the enteric interior capsule walls become wet, thereby subjecting the TTM to the acid or moisture, causing rapid degradation of the enteric capsule from the chemical reaction with the moistened TTM.
The present inventors have determined that the TTM releases H2S gas when a small amount of stomach acid or moisture enters the enteric capsule, not only causing degradation of the TTM, but also the moisture seeping through the capsule causes TTM to release H2S as part of the degradation process, which then comes in contact with the inside of the enteric capsule. This dissolves the enteric capsule from inside the capsule and leads to a catastrophic capsule failure within 15 to 30 minutes.
This is not a preferred solution as the TTM is getting wet inside the capsule and degrading, creating the problem of not knowing how much TTM will be left to be absorbed by the patient after the tablet leaves the stomach. Such a reaction reduces the amount of drug being available to the patient, thereby reducing the drugs intended effect due to less TTM available. […]

The nature of data set [2]: Solubility of crushed and screened TTM particles in water. In kind it is physicochemical. To be noted: particles after 70-mesh screen. The text has this: The present inventors undertook a study to determine the size of the TTM particles after a crushing and screening process using a 70-mesh screen that would allow a maximum particle size of 210 micrometers. The size range was as follows: 10% under 13.3 μm; 50% under 44.5 μm; 90% under 122 μm.
This is not unsurprising, as saturation will occur in fluids as a known principle and does illustrate enough fluid is required to be available to dissolve the administered TTM to create optimal bioavailability. Further, larger particles with […] surface area would be expected to remain after the smaller particles dissolve.

For the compound `[SH-].[SH-].[S]=[Mo]=[S]` [TTM, tetrathiomolybdate], the “TTM leakage from enteric capsule with additional enteric coatings” value in data set [1] is reported as “still leaking out”. The values for the solubility in water result in data set [2] (60 mg in 300 ml water) and in data set [2] (160 mg in 300 ml of water) were “dissolved fully over time” and “did not fully dissolve”, respectively.
